Experiment: excess molar enthalpy (molar enthalpy of mixing); xn = mol fraction of the nth substance listed
Details: 101 kPa, Liquid, Calvet calorimetry

[Ca] [calcium] + [Ag]
Details | excess molar enthalpy [kcal/mol]
1131 K, x1 = 0.7564 | -3.38
1131 K, x1 = 0.8188 | -2.59
1131 K, x1 = 0.8703 | -1.83
1131 K, x1 = 0.8808 | -1.66
1131 K, x1 = 0.9156 | -1.19
1131 K, x1 = 0.9224 | -1.1
1131 K, x1 = 0.9626 | -0.537
1131 K, x1 = 0.9647 | -0.496
1254 K, x1 = 0.0642 | -1.32
1254 K, x1 = 0.0984 | -1.7
1254 K, x1 = 0.1103 | -1.83
1254 K, x1 = 0.1123 | -2.28
1254 K, x1 = 0.1203 | -2.04
1254 K, x1 = 0.1288 | -2.6
1254 K, x1 = 0.1327 | -2.32
1254 K, x1 = 0.1487 | -2.66
1254 K, x1 = 0.1699 | -3.08
1254 K, x1 = 0.1893 | -3.43
1254 K, x1 = 0.1897 | -3.31
1254 K, x1 = 0.2073 | -3.25
1254 K, x1 = 0.2145 | -3.87
1254 K, x1 = 0.2393 | -3.77
1254 K, x1 = 0.2405 | -4.25
1254 K, x1 = 0.249 | -4.69
1254 K, x1 = 0.2673 | -4.17
1254 K, x1 = 0.2711 | -4.66
1254 K, x1 = 0.2999 | -4.55
1254 K, x1 = 0.3115 | -5.08
1254 K, x1 = 0.3416 | -4.95
1254 K, x1 = 0.3685 | -5.53
1254 K, x1 = 0.3962 | -5.28
1254 K, x1 = 0.4438 | -5.82
1254 K, x1 = 0.4634 | -5.88
1254 K, x1 = 0.4708 | -5.44
1254 K, x1 = 0.5175 | -5.79
1254 K, x1 = 0.5477 | -5.3
1254 K, x1 = 0.5562 | -5.62
1254 K, x1 = 0.6306 | -4.79
1254 K, x1 = 0.6313 | -5
1254 K, x1 = 0.6768 | -4.7
1254 K, x1 = 0.7157 | -4.28
1254 K, x1 = 0.7353 | -3.76
1254 K, x1 = 0.8259 | -2.59
1254 K, x1 = 0.9396 | -0.962

Reference: the NIST ThermoML archive (doi:10.1016/j.jct.2014.05.021)
